These molecules were tested on SU-DHL-1 cells (assay: Inhibition activity of cell proliferation (CCK-8 assay)). Settings: Homo sapiens, 72 h exposure.
Format: cell-based
Procedure: SU-DHL-1 cells were seeded in 96-well tissue culture plates. On the next day, cells were exposed to various concentrations of compounds and further cultured for 72 h. Cell proliferation was then determined using Cell Counting Kit-8 [(CCK-8), Dojindo]assay. Briefly, add 10 μL of the CCK-8 solution to each well of the plate. Incubate the plate for 1-4 hours in the incubator. Measure the absorbance at 450 nm using a multi-well spectrophotometer (SpectraMAX 190, Molecular Devices). The inhibition rate (%) was calculated using the following equation: [1−(A450 Compound/A450 Control)]×100%. IC50 values were calculated according to inhibition curve by four-parameter fit.

SMILES	IC50 [nM]
Cc1cc(Nc2ncc(Cl)c(Nc3ccccc3S(=O)(=O)C(C)C)n2)c2c(c1C1CCN(C(=O)[C@H](C)N)CC1)C[C@@H](C)O2 [Example 22, (S)-2-amino-1-(4-((R)-7-((5-chloro-4-((2-(isopropylsulfonyl)phenyl)amino)pyrimidin-2-yl)amino)-2,5-dimethyl-2,3-dihydrobenzofuran-4-yl)piperidin-1-yl)propan-1-one]	86
Cc1cc(Nc2ncc(Cl)c(Nc3ccccc3S(=O)(=O)C(C)C)n2)c2c(c1C(=O)N1CCOCC1)C[C@H](C)O2 [Example 48, (S)-(7-((5-chloro-4-((2-(isopropylsulfonyl)phenyl)amino)pyrimidin-2-yl)amino)-2,5-dimethyl-2,3-dihydrobenzofuran-4-yl)(morpholino)methanone]	219
CCC(=O)N1CCC(c2c(C)cc(Nc3ncc(Cl)c(Nc4ccccc4S(=O)(=O)C(C)C)n3)c3c2C[C@@H](C)O3)CC1 [Example 49, (R)-1-(4-(7-((5-chloro-4-((2-(isopropylsulfonyl)phenyl)amino)pyrimidin-2-yl)amino)-2,5-dimethyl-2,3-dihydrobenzofuran-4-yl)piperidin-1-yl)propan-1-one]	97.8
Cc1cc(Nc2nc(Nc3ccccc3S(=O)(=O)C(C)C)c3c(C)n[nH]c3n2)c2c(c1C1CCN(C)CC1)C[C@H](C)O2 [Example 6]	34.6
Cc1cc(Nc2ncc(Cl)c(Nc3ccccc3S(=O)(=O)C(C)C)n2)c2c(c1C1CCN(C[C@@H](C)O)CC1)C[C@H](C)O2 [Example 35, (R)-1-(4-((S)-7-((5-chloro-4-((2-(isopropylsulfonyl)phenyl)amino)pyrimidin-2-yl)amino)-2,5-dimethyl-2,3-dihydrobenzofuran-4-yl)piperidin-1-yl)propan-2-ol]	36.9
Cc1cc(Nc2ncc(Cl)c(Nc3ccccc3S(=O)(=O)C(C)C)n2)c2c(c1C1CCN(C(=O)CN)CC1)C[C@H](C)O2 [Example 42, (S)-2-amino-1-(4-(7-((5-chloro-4-((2-(isopropylsulfonyl)phenyl)amino)pyrimidin-2-yl)amino)-2,5-dimethyl-2,3-dihydrobenzofuran-4-yl)piperidin-1-yl)ethanone]	54.6

These reach a lower IC50. Values come first.

IC50 [nM]	SMILES
12.3	Cc1cc(Nc2ncc(Cl)c(Nc3ccccc3S(=O)(=O)C(C)C)n2)c2c(c1C1CCN(CCO)CC1)C[C@H](C)O2 [Example 34, (S)-2-(4-(7-((5-chloro-4-((2-(isopropylsulfonyl)phenyl)amino)pyrimidin-2-yl)amino)-2,5-dimethyl-2,3-dihydrobenzofuran-4-yl)piperidin-1-yl)ethanol]
15.9	Cc1cc(Nc2ncc(Cl)c(Nc3ccccc3S(=O)(=O)C(C)C)n2)c2c(c1C1CCN(S(C)(=O)=O)CC1)C[C@@H](C)O2 [Example 18]
32.8	CO[C@@H](C)C(=O)N1CCC(c2c(C)cc(Nc3ncc(Cl)c(Nc4ccccc4S(=O)(=O)C(C)C)n3)c3c2C[C@@H](C)O3)CC1 [Example 57, (S)-1-(4-((R)-7-((5-chloro-4-((2-(isopropylsulfonyl)phenyl)amino)pyrimidin-2-yl)amino)-2,5-dimethyl-2,3-dihydrobenzofuran-4-yl)piperidin-1-yl)-2-methoxypropan-1-one]
12.1	Cc1cc(Nc2nc(Nc3ccccc3S(=O)(=O)C(C)C)c3c(C)n[nH]c3n2)c2c(c1C1CCNCC1)C[C@H](C)O2 [Example 5]
< 0.2	Cc1cc(Nc2ncc(Cl)c(Nc3ccccc3S(=O)(=O)C(C)C)n2)c2c(c1C1CCN(C)CC1)C[C@@H](C)O2 [Example 10, (R)-5-chloro-N-2-(2,5-dimethyl-4-(1-methylpiperidin-4-yl)-2,3-dihydrobenzofuran-7-yl)-N-4-(2-(isopropylsulfonyl)phenyl)pyrimidine-2,4-diamine]
17.4	Cc1cc(Nc2ncc(Cl)c(Nc3ccccc3S(=O)(=O)C(C)C)n2)c2c(c1C1CCN(CCS(C)(=O)=O)CC1)C[C@@H](C)O2 [Example 30]
